How the values were obtained:
[1] = Sprague-Dawley rats, oral administration of 3.0 mg/kg; cited from earlier work
[2] = cited from earlier work
[3] = tested on: rats and mice; details: cited from earlier work
[4] = tested on: rats (Rattus norvegicus); experiment: Lab test of stop feeding effect (choice feeding test); assay type: in vivo; details: 100 mg/kg of calciferol
Description: A lab trial was set up to test the stop-feeding effect induced by calciferol-containing bait in the absence of an anticoagulant rodenticide. Three groups (Group control, Group a, and Group b) of ten rats (Rattus norvegicus) each were subjected to the experiment. The control group and Group a consisted of male rats; Group b consisted of female rats. The groups were kept in three connected pens (20 cm×60 cm) with shelter, saw-dust, water and feed ad libitum under standard laboratory conditions. The rats acclimatized in the test setup for ten days, with standard lab chew ad libitum.
The test-bait formulation was a paste-bait, based on vegetable fat and cereal flour, and contained cholecalciferol at 100 mg/kg. During the choice feeding test, the rats of both treatment groups (a and b) received the cholecalciferol-containing bait and the challenge diet (standard rat chew; Höveler, Germany) ad libitum. The control group received the same bait as the treatment groups but without cholecalciferol, and the challenge diet. Consumption of bait and challenge diet was recorded in all groups daily for 14 days. The daily bait consumption results are depicted in FIG. 1.
FIG. 1 depicts the daily consumption of bait (grams) in the laboratory study of Experiment 1, where three groups of rats (n=10 each) were given a choice between standard lab diet, and bait with or without cholecalciferol (100 mg/kg). […]

[5] = tested on: rats or mice; details: in rodenticide bait, alone or combined with warfarin; cited from earlier work

O=c1oc2ccccc2c(O)c1[C@@H]1Cc2ccccc2[C@H](c2ccc(-c3ccc(Br)cc3)cc2)C1 (single isomer, unassigned) [cis-isomer of brodifacoum]
liver half-life [1]: 120.82 h

O=c1oc2ccccc2c(O)c1C(CC(O)c1ccc(-c2ccc(Br)cc2)cc1)c1ccccc1 (single isomer, unassigned) [cis-isomer of bromadiolone]
liver half-life [1]: 26.89 h

O=c1oc2ccccc2c(O)c1[C@@H]1C[C@@H](c2ccc(OCc3ccc(C(F)(F)F)cc3)cc2)Cc2ccccc21 (single isomer, unassigned) [cis-isomer of flocoumafen]
liver half-life [1]: 76.73 h

O=c1oc2ccccc2c(O)c1C1CC(c2ccc(-c3ccc(Br)cc3)cc2)Cc2ccccc21 (single isomer, unassigned) [trans-isomer of brodifacoum]
liver half-life [1]: 68.73 h

O=c1oc2ccccc2c(O)c1C1CC(c2ccc(-c3ccc(Br)cc3)cc2)Cc2ccccc21 (stereo not shown) [brodifacoum, 3-[3-[4-(4-bromophenyl)phenyl]-1,2,3,4-tetrahydronaphthalen-1-yl]-4-hydroxychromen-2-one]
half-life in the liver ([2]; liver): 307.4 days | plasma half-life [2]: 91.7 days

C=C1CC[C@H](O)C/C1=C/C=C1\CCC[C@]2(C)[C@@H]([C@H](C)/C=C/[C@H](C)C(C)C)CC[C@@H]12 [calciferol]
acute oral LD50 [3]: 30 to 100 mg/kg | stop feeding effect [4]: significant stop feeding effect within two days | minimum concentration likely to give good results in the field [5]: 0.1%

O=c1oc2ccccc2c(O)c1C1CCCc2ccccc21 (stereo not shown) [coumatetralyl, 4-Hydroxy-3-(1,2,3,4-tetrahydro-1-naphthyl) coumarin]
plasma half-life [2]: 0.52 days
